For the experiment, the target named is T1, GPR43 (Mus musculus, UniProt Q8VCK6).
T1 sequence (Q8VCK6 1-330): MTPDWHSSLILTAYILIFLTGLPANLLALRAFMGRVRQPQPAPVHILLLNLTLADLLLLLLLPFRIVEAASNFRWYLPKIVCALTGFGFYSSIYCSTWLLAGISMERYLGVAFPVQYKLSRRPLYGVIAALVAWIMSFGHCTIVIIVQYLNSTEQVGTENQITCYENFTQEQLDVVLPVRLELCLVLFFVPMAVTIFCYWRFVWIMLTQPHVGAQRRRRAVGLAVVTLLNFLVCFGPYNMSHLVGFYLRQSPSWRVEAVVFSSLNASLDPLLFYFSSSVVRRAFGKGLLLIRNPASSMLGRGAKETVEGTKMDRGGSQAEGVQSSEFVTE
The format is cell-based.

Consider `CC(=O)CC(=O)O` [acetoacetate], for which the concentration giving a half-maximal response (EC50) – broadly, the concentration that produces a half-maximal response – is 760 µM.

Values taken from article PMC6876247 (Proceedings of the National Academy of Sciences of the …, 2019).
